Measured values published in US7951772B2, “Tumor-activated prodrug compounds and treatment” (La Region Wallonne, priority 1994, dated 2011).
≈ marks a conversion by molar mass, not a printed value. Where “and” joins values, the source holds several entries; their conditions need not be identical. Equal values may be shown once. Square brackets hold non-standard residues; d marks the D form. Peptide text beside a SMILES is read from it. * marks the point of attachment. X1 = COc1cccc2c1C(=O)c1c(O)c3c(c(O)c1C2=O)CC(O)(C(=O)CO)CC3OC1CC(N*)C(O)C(C)O1; pGlu = O=C1CC[CH](C(=O)O)N1

How the values were obtained:
[1] = tested on: conditioned medium from MCF7/6 mammary carcinoma cells
[2] = tested on: conditioned medium from MCF7/6 mammary carcinoma cells; experiment: Degradation in conditioned medium from MCF7/6 mammary carcinoma cells (HPLC); settings: β-Ala-Leu-Ala-Leu-DOX incubated at 37 C in MCF7/6 conditioned medium concentrated 20 times, share of each species
[3] = tested on: MCF7/6 human mammary carcinoma cells; experiment: Accumulation in MCF7/6 tumor cells (HPLC of cell extracts); settings: MCF7/6 cells, 10 μg eq. DOX/ml
Description: After various times, the accumulation of the prodrugs and of their fluorescent metabolites were determined by HPLC after extraction of the products at basic pH according to a method developed in the laboratory. Accumulations, expressed in μg/mg of cellular proteins, were compared with those of DNR and of DOX as well as with those of L-Leu-DNR and L-Leu-DOX. The metabolites were identified by determining the retention times of reference products synthesized in the laboratory.
(§1) After various times, the accumulation of the prodrugs and of their fluorescent metabolites was determined by HPLC after extraction of the products at basic pH according to a method developed in the laboratory. Accumulations, expressed in μg/mg of cellular proteins, were compared with those of DOX and of L-Leu-DOX. The metabolites were identified by determining the retention times of reference products synthesized in the laboratory.

MRC5 fibroblast cells [4] = experiment: Cytotoxicity with respect to MRC5 normal cells (72 h, Bradford protein); settings: Homo sapiens, MRC5, 72 h, read-out: IC50 (72 h)
Description: (§2) After 72 hours, the cells are incubated for 48 hours in the absence of anthracycline, and the cytotoxicity is determined by measuring the cellular proteins by Bradford's technique. […] The experimental points are adjusted to a sigmoid curve which enables the point of inflection, corresponding to the dose at which half of the cells survive (IC50), to be calculated.
(§3) After 72 hours, the cells are incubated for 48 hours in the absence of the anthracycline, and the cytotoxicity is determined by measuring the cellular proteins by Bradford's technique. […] The experimental points are adjusted to a sigmoid curve which enables the point of inflection, corresponding to the dose at which half of the cells survive (IC50), to be calculated.

MRC5 fibroblast cells [5] = experiment: Accumulation in MRC5 normal fibroblast cells (HPLC of cell extracts)
Description: At various times, the accumulation of the prodrugs and of their fluorescent metabolites was determined by HPLC after extraction of the products at basic pH according to a method developed in the laboratory. Accumulations, expressed in μg/mg of cellular proteins, were compared with those of DNR and of L-Leu-DNR. The metabolites were identified by determining the retention times of reference products synthesized in the laboratory.
as §1

[6] = tested on: MCF7/6 human mammary carcinoma cells; experiment: Cytotoxicity with respect to MCF7/6 tumor cells (72 h, Bradford protein); settings: Homo sapiens, MCF7/6, 72 h, read-out: IC50 (72 h)
Description: as §2, §3

## COc1cccc2c1C(=O)c1c(O)c3c(c(O)c1C2=O)CC(O)(C(C)=O)CC3OC1CC(NC(=O)C(CC(C)C)NC(=O)C(C)NC(=O)C(CC(C)C)NC(=O)C(C)N)C(O)C(C)O1 [L-Ala-L-Leu-L-Ala-L-Leu-DNR]
[1]
  Hydrolysis, MCF-7/6 Conditioned Medium: +

## COc1cccc2c1C(=O)c1c(O)c3c(c(O)c1C2=O)CC(O)(C(C)=O)CC3OC1CC(NC(=O)C(CC(C)C)NC(=O)CNC(=O)C(CC(C)C)NC(=O)CN)C(O)C(C)O1 [Gly-L-Leu-Gly-L-Leu-DNR]
[1]
  Hydrolysis, MCF-7/6 Conditioned Medium: +

## COc1cccc2c1C(=O)c1c(O)c3c(c(O)c1C2=O)CC(O)(C(=O)CO)CC3OC1CC(NC(=O)C(CC(C)C)NC(=O)C(C)N)C(O)C(C)O1 [L-Ala-L-Leu-DOX]
[2]
  Starting material or Metabolite, After 2 hours: <1%
  Starting material or Metabolite, Time 0: 0%

## COc1cccc2c1C(=O)c1c(O)c3c(c(O)c1C2=O)CC(O)(C(C)=O)CC3OC1CC(NC(=O)C(CC(C)C)NC(=O)C(C)NC(=O)C(CC(C)C)NC(=O)C(C)NC(=O)C(N)CC(C)C)C(O)C(C)O1 [D-Leu-L-Ala-L-Leu-L-Ala-L-Leu-DNR]
[1]
  Hydrolysis, MCF-7/6 Conditioned Medium: +

## COc1cccc2c1C(=O)c1c(O)c3c(c(O)c1C2=O)C[C@@](O)(C(=O)CO)C[C@@H]3O[C@H]1C[C@H](N)[C@H](O)[C@H](C)O1 [DOX, doxorubicin]
[3]
  Accumulation after 6 h, DOX: 6.9 μg/mg cellular prot. and 6.90 μg/mg cellular prot.
MRC5 fibroblast cells [4]
  IC50: 0.018 mg/L (≈ 0.0331 µM)
MRC5 fibroblast cells [5]; MRC5 cells, 10 μg eq. DOX/ml
  Accumulation after 6 h, DOX: 11.20 μg/mg cellular prot.
MRC5 fibroblast cells [5]; MRC5 versus MCF7/6, 6 h incubation
  intracellular levels of the active therapeutic agent in normal cells compared with tumor cells: twice as high
[6]
  IC50: 0.0025 mg/L (≈ 0.0046 µM)

## COc1cccc2c1C(=O)c1c(O)c3c(c(O)c1C2=O)CC(O)(C(C)=O)CC3OC1CC(NC(=O)C(CC(C)C)NC(=O)C(C)NC(=O)C(CC(C)C)NC(=O)C(C)NC(=O)CCC(=O)O)C(O)C(C)O1 [Succ-L-Ala-L-Leu-L-Ala-L-Leu-DNR]
[1]
  Hydrolysis, MCF-7/6 Conditioned Medium: −

## COc1cccc2c1C(=O)c1c(O)c3c(c(O)c1C2=O)C[C@@](O)(C(=O)CO)C[C@@H]3O[C@H]1C[C@H](NC(=O)[C@H](CC(C)C)NC(=O)[C@H](C)NC(=O)[C@@H](N)CC(C)C)[C@H](O)[C@H](C)O1 [L-Leu-L-Ala-L-Leu-DOX]
[2]
  Starting material or Metabolite, After 2 hours: <1%
  Starting material or Metabolite, Time 0: 0%

## COc1cccc2c1C(=O)c1c(O)c3c(c(O)c1C2=O)CC(O)(C(=O)CO)CC3OC1CC(NC(=O)C(CC(C)C)NC(=O)C(C)NC(=O)C(CC(C)C)NC(=O)C(C)NC(=O)C2CCC(=O)N2)C(O)C(C)O1 [pGlu-L-Ala-L-Leu-L-Ala-L-Leu-DOX] ([pGlu]ALAL-X1; configuration not given here)
[1]
  Hydrolysis, MCF-7/6 Conditioned Medium: −

## β-Ala-L-Leu-L-Ala-L-Leu-COU
[1]
  Hydrolysis, MCF-7/6 Conditioned Medium: +
